Key:
Canavalia ensiformis = assay: Percent inhibition against alpha-D-mannosidase from jack bean at 1 mM concentration
Clostridium perfringens = assay: Percent inhibition against neuraminidase from Type X, Clostridium perfringens at 1 mM concentration
[1] = substrate: Cc1cc(=O)oc2cc(OC3O[C@H](C)[C@H](O)[C@H](O)[C@H]3O)ccc12; assay: The Michaelis-Menten constant against alpha-L-fucosidase from solubilized human neutrophils was determined

Molecule `CC1NC(CO)[C@@H](O)C(O)[C@@H]1O` (single isomer, unassigned) has an inhibition (Canavalia ensiformis) of 0% and an inhibition (Clostridium perfringens) of 0%.

`C[C@@H]1NC[C@@H](O)[C@H](O)[C@@H]1O` gave an inhibition (Canavalia ensiformis) of 83% and an inhibition (Clostridium perfringens) of 50%.

B1: Plasma alpha-L-fucosidase (Homo sapiens), Q9BTY2 (protein)
chain: MRPQELPRLAFPLLLLLLLLLPPPPCPAHSATRFDPTWESLDARQLPAWFDQAKFGIFIHWGVFSVPSFGSEWFWWYWQKEKIPKYVEFMKDNYPPSFKYEDFGPLFTAKFFNANQWADIFQASGAKYIVLTSKHHEGFTLWGSEYSWNWNAIDEGPKRDIVKELEVAIRNRTDLRFGLYYSLFEWFHPLFLEDESSSFHKRQFPVSKTLPELYELVNNYQPEVLWSDGDGGAPDQYWNSTGFLAWLYNESPVRGTVVTNDRWGAGSICKHGGFYTCSDRYNPGHLLPHKWENCMTIDKLSWGYRREAGISDYLTIEELVKQLVETVSCGGNLLMNIGPTLDGTISVVFEERLRQMGSWLKVNGEAIYETHTWRSQNDTVTPDVWYTSKPKEKLVYAIFLKWPTSGQLFLGHPKAILGATEVKLLGHGQPLNWISLEQNGIMVELPQLTIHQMPCKWGWALALTNVI
Molecule B1 has a Km [1] of 250 µM.

— ChEMBL document CHEMBL1150025, “Synthesis of and glycosidase inhibition by -l-homofuconojirimycin” (Bioorg Med Chem Lett, 1993)
